Legend:
Format in all cases: in vivo
[1] = tested on: beet armyworm (Spodoptera exigua); assay: Test D: rainfastness for the control of beet armyworm on sprayed cotton plants; details: Rain: Yes (about 95 mm simulated rain 2 h after spraying), four days after infestation
Description: For evaluating rainfastness (resistance to wash-off) for the control of beet armyworm (Spodoptera exigua), the test unit consisted of a cotton plant grown in a pot containing Redi-earth® medium. Test solutions were formulated as described in TEST A. When the plants were at the 4-6 true leaf growth stage, the plants were sprayed with the formulated test solution using a belt sprayer with nozzle positioned 19 cm above the plants and providing an application volume of 234 liters/ha. After spraying of the formulated test solutions, each test unit was allowed to dry for 2 h and then exposed to about 95 mm of simulated rain in a greenhouse. Plants were then allowed to dry, and leaves were cut and placed on agar in 16-cell plastic trays. One 3-day-old, laboratory reared beet armyworm larva was placed in each cell, and the cells were covered with a plastic lid. Two 16-cell trays were used per treatment. Trays were held in a growth chamber at 75% relative humidity, 16 h with light (as daytime) and 8 h in dark (as nighttime) at 25° C. Four days after infestation, each test unit was evaluated for larvae mortality, and the mean concentrations killing 50% of the population (mean LC50) were calculated and are listed in Table 4D.

[2] = tested on: western flower thrips (Frankliniella occidentalis Pergande); assay: Test A: control of western flower thrips on sprayed bean plants; details: spray 500 L/ha, 7 days, immature thrips count
Description: For evaluating control of the western flower thrips (Frankliniella occidentalis Pergande) through contact and/or systemic means, each test unit consisted of a bean plant (var. Soleil) with at least two true leaves, which was planted in Redi-earth® medium (Scotts Co.). One plant was considered as one replication; four replications were used per treatment.
Technical material (unformulated) was dissolved in acetone and mixed with water containing 500 ppm of a blend of non-ionic surfactant with organosilicone (Kinetic®, Helena Chemical Co.). Formulated materials were diluted with water only. Rates of the test solutions were reported by the amount of active ingredient in ppm. Plants were sprayed using a TeeJet flat fan spray nozzle positioned 7.5 inches (19 cm) above the tallest plant. Spray flow rate was adjusted to 5.5 mL/sec for an equivalent of 500 L/ha. After spraying of the test solutions, the test units were placed in ventilated enclosures for at least one hour to dry. Thirty adult thrips were then added to each unit, and then the plants were placed in enclosed cages to prevent insect egress. […] Percent control was calculated by dividing the number of immature thrips in a test unit by the number of immature thrips in the untreated unit, subtracting the quotient from 1, and then multiplying the difference by 100%.

[3] = tested on: silverleaf whitefly (Bemisia argentifolii Bellows & Perring); assay: Test B: control of silverleaf whitefly on sprayed cotton plants; details: 144 h, read-out: % Mortality of Silverleaf Whitefly
Description: For evaluating control of silverleaf whitefly (Bemisia argentifolii Bellows & Perring), the test unit consisted of a 14-21-day-old cotton plant with at least two true leaves, which was planted in Redi-earth® medium (Scotts Co.). The plants were placed in screened cages, where whitefly adults were introduced and allowed to lay eggs for approximately twenty-four hours. Only plants showing egg lay were used for testing. Before spraying the test solutions, the plants were checked again for egg hatch and crawler settlement. One leaf per plant was considered as one replication; four replications were used per treatment.
Test solutions were formulated as described in TEST A. A control solution consisting of 25% acetone in water was also prepared. After spraying, plants were allowed to dry in a ventilated enclosure and held for six days in a growth chamber at 50% relative humidity, 16 h with light (as daytime) at 28° C. and 8 h in dark (as nighttime) at 24° C. After removing all leaves from each test plant, evaluation was made by counting dead and live nymphs present on the underside of the leaves.

[4] = tested on: green peach aphid (Myzus persicae); assay: Test C: control of green peach aphid on sprayed radish plants; details: 144 h, read-out: % Mortality of Green Peach Aphid
Description: For evaluating control of green peach aphid (Myzus persicae) through contact and/or systemic means, the test unit consisted of a 3-week old radish plant pre-infested with 30-40 aphids 24 h prior to treatment with test solutions. One plant was considered as one replication, four replications were used per treatment.
After spraying of the formulated test solutions, each test unit was allowed to dry, and the test units were held for 6 days in a growth chamber maintained at 19-21° C. and 50-70% relative humidity. Dead and live of aphids were counted in each test unit to determine percent mortality.

| Structure (SMILES) | Mean LC50 of Beet Armyworm [1] | Mean LC50 of Beet Armyworm ([1]; listed as Compound 2) | % Control of Western Flower Thrips ([2]; 100 ppm a.i.) | % Control of Western Flower Thrips ([2]; 200 ppm a.i.) | mortality at 22 ppm [3] | mortality at 66 ppm [3] | mortality at 200 ppm [3] | mortality at 600 ppm [3] | mortality at 50 ppm [4] | mortality at 100 ppm [4] | mortality at 200 ppm [4] | mortality at 400 ppm [4] | Mean LC50 of Beet Armyworm ([1]; listed as Compound 1) |
| --- | --- | --- | --- | --- | --- | --- | --- | --- | --- | --- | --- | --- | --- |
| CNC(=O)c1cc(Cl)cc(C)c1NC(=O)c1cc(Br)nn1-c1ncccc1Cl [Technical Compound 2, 3-bromo-N-[4-chloro-2-methyl-6-[(methylamino)carbonyl]phenyl]-1-(3-chloro-2-pyridinyl)-1H-pyrazole-5-carboxamide] | Inactive | no detectable activity |  |  |  |  |  |  |  |  |  |  |  |
| CNC(=O)c1cc(C#N)cc(C)c1NC(=O)c1cc(Br)nn1-c1ncccc1Cl [Technical Compound 1, 3-bromo-1-(3-chloro-2-pyridinyl)-N-[4-cyano-2-methyl-6-[(methylamino)carbonyl]phenyl]-1H-pyrazole-5-carboxamide] | Very little activity |  | 74% | 72% | 90% | 91% | 100% | 100% | 8% | 9% | 19% | 35% | very little activity |
